According to patent US20120282266A1, “ANTI-NEOPLASTIC USES OF ARTEMIN ANTAGONISTS” (AUCKLAND UNISERVICES LIMITED, priority 2009, published 2012):

Tests used:
artemin = experiment: Artemin expression by semi-quantitative RT-PCR and Western blot in TAMS/TAMR cells; assay type: cell-based, human; conditions: 1 μM tamoxifen, 72 hours
Procedure: Total RNA was isolated from cultured cells with Trizol reagent (Invitrogen) at 1 ml/10 cm2 according to the manufacturer's instructions. RNA was resuspended in diethyl pyrocarbonate (DEPC)-treated nuclease-free water. RNA samples were further treated with DNase I for 30 min at 37° C. The reaction was stopped by addition of 25 mM EDTA and incubation at 65° C. for 15 min. RNA samples were then purified by extraction in phenol/chloroform (pH 5.2, phenol:chloroform:isoamyl alcohol at 25:24:1) followed by an additional chloroform extraction and ethanol precipitation. Quantification and purity of the RNA was assessed by A260/A280 absorption, and RNA quality was assessed by agarose gel electrophoresis. RNA samples with ratios of A260/A280 greater than 1.6 were stored at −80° C. for further analysis.
One-step reverse transcription (RT)-PCR kit (Qiagen) was used to determine the presence of artemin transcript using a pair of primers: 5′-[…]-3 (forward; SEQ ID NO: 41) and 5′-[…]-3′ (reverse; SEQ ID NO: 42). For RT-PCR, the following procedure was employed. To start, 1 μg of total RNA was diluted to 0.1 μg/μl to minimize the variation of sample handling. This dilution was treated by DNase I for 15 min, followed by inactivation of DNase by adding EDTA to 5 mM and heating to 70° C. for 15 min. […]

[1] = tested on: TAMS cells (tamoxifen sensitive MCF-7); experiment: Cell number growth assay in estrogen free medium, TAMS cells; assay type: cell-based, human; conditions: 1 μM tamoxifen, 7 days
Procedure: (§1) For estrogen-free cell culture, MCF-7 cells were cultured in phenol red free RPMI-1640 supplemented with 10% dextran coated charcoal stripped fetal bovine serum (CS-FBS) for 3 days before estrogen or antiestrogen treatment. The tamoxifen resistant (TAMR) cell line was established as described by Shaw et al. (2006). Briefly, the parental MCF-7 cells were continuously exposed for 6 months to 1 μM tamoxifen in phenol red free RPMI 1640 medium containing 10% CS-FBS until the cells developed resistance to the growth inhibitory effect of tamoxifen. MCF-7 cells sensitive to tamoxifen, cultured in the same medium without tamoxifen, were designated as tamoxifen sensitive (TAMS) cells. Cells were seeded onto 6-well plates at a density of 5×10^4 cells per well, in triplicate, in 3 ml of complete medium containing 10% or 0.2% FBS. Cells were cultured under these conditions for up to 10 days with medium changed every other day until harvesting. To compare the cell proliferation rate, the total cell number in each well was quantified with a haemocytometer every 2 days. Cell viability was assessed by using trypan blue.

[2] = tested on: TAMR cells (tamoxifen resistant MCF-7); experiment: Cell number growth assay in estrogen free medium, TAMR cells; assay type: cell-based, human; conditions: 1 μM tamoxifen, 7 days
Procedure: as §1

[3] = tested on: TAMR cells (tamoxifen resistant MCF-7); experiment: Soft agar colony formation (anchorage independent growth), TAMR cells; assay type: cell-based, human; conditions: 1 μM tamoxifen alone, 10 days
Procedure: (§2) For soft agar colony formation assay, cells were cultured in 96-well plates first covered with a layer of agar (0.5%). Cells were grown in medium containing 10% FBS. 5×10^3 cells were seeded into 100 μl 0.35% agarose and onto the 0.5% agarose base layer. 100 μl serum-supplemented medium containing drug or antibody was added on the top and changed every 3 days. The plates were incubated at 37° C. in a humidified incubator. After 10 days, alarmarBlue® was added (1:10 volume reagent, Invitrogen) and incubated at 37° C. for 4 hours, followed by measurement of fluorescence with excitation wavelength at 530 nm and emission wavelength at 590 nm.
To perform soft agar colony formation assays, 50 μl of 0.5% agarose in serum containing medium was plated onto each well of 96-well flat-bottom microplates, as a base agar layer. Next, 5×10^3 cells in a […] mixture of 0.35% agarose in serum containing medium were plated onto the base layer. Subsequently, 100 μl of the medium was added to prevent drying of the agarose gels. For antibody treatment, the antibodies at the indicated concentrations were added into the top agar layer and the culture medium to ensure the complete exposure of cells to antibodies. […] The plate was shaken briefly and then read at 595 nm (test wavelength) and 690 nm (reference wavelength) using the Synergy™ 2 Multi-Mode Microplate Reader (BioTek instruments, Inc., Vermont, USA).

BT549 PTX Res cells = experiment: Cell function assays (monolayer viability, soft agar colony formation, 3D matrigel growth), BT549-PTX Res; assay type: cell-based
Procedure: as §2
For the 3D Matrigel™ culture, monolayer grown cells were harvested by trypsinization, taken up in the complete medium, and separated into single-cell suspension by several passages through a Pasteur pipette. After this, 50 μl complete medium containing 5,000 cells was added to 150 μl of growth factor reduced Matrigel™ (Becton Dickinson, Bedford, Mass.) diluted 1:1 with complete media with 20% FBS. […] Organoid formation was counted in randomly chosen fields with light microscopy. […]
Cell viability, soft agar colony formation assay and 3D matrigel growth assays were performed as described above in Example 1. For the cell viability assay, 3000 cells were seeded into 100 ul media(2% FBS) and every 24 h viability was determined.

ARTN = experiment: Western blot for ARTN protein expression in BT549 and MDA-MB-231 cell pairs; assay type: cell-based, human; conditions: BT549 wild type cells, with paclitaxel vs without paclitaxel
Procedure: Western blot analysis was performed as described previously (Liu and Lobie, 2007) using the following antibodies: goat anti-artemin polyclonal antibody (R&D systems, Minneapolis, Minn.) and mouse anti-β-Actin monoclonal antibody (Sigma, St Louis, Mo.).
Western blot analysis was performed as described above in Example 1.
Reagents, Western blot analysis, and cell function and viability assays were all done as described above in Example 2.

Compound	artemin expression (mRNA and protein) (artemin; TAMR cells)	artemin expression (mRNA and protein) (artemin; TAMS cells)	growth of TAMS cells [1]	growth of TAMR cells [2]	colony formation in soft agar [3]	difference in sensitivity to paclitaxel, resistant subline vs parental line (BT549 PTX Res cells; BT549-PTX Res vs parental BT549)	sensitivity to paclitaxel in monolayer proliferation, colony formation in soft agar and 3D matrigel growth (BT549 PTX Res cells; paclitaxel resistant cells compared to paclitaxel sensitive cells)	ARTN expression (ARTN)
CC/C(=C(\c1ccccc1)c1ccc(OCCN(C)C)cc1)c1ccccc1 [tamoxifen]	retained elevated artemin expression	markedly abrogated artemin expression	retained the response to E2 and tamoxifen sensitivity	loss of response to E2 and of tamoxifen sensitivity	did not affect colony formation			
CC(=O)O[C@H]1C(=O)[C@@]2(C)[C@H]([C@H](OC(=O)c3ccccc3)[C@]3(O)C[C@H](OC(=O)[C@H](O)[C@@H](NC(=O)c4ccccc4)c4ccccc4)C(C)=C1C3(C)C)[C@]1(OC(C)=O)CO[C@@H]1C[C@@H]2O [paclitaxel]						~2 fold	less sensitivity to paclitaxel	increased ARTN expression
